# Results from publication PMC7178866, “In vitro inhibitory effects of ganoderic acid A on human liver cytochrome P450 enzymes” (Pharmaceutical Biology, 2020).
# Key:
# [1] = target: T1, CYP3A4 (Homo sapiens, UniProt P08684); experiment: Inhibition of CYP3A4 (testosterone 6β-hydroxylation) in pooled human liver microsomes; type: in vitro ADME
# T1 construct: CYP3A4 catalyzed reactions (testosterone 6β-hydroxylation) in pooled HLM; from tissue; host or cells: pooled human liver microsomes
# Protocol: (§1) All incubations were performed in triplicate, and the mean values were utilized. The typical incubation systems contained 100 mM potassium phosphate buffer (pH 7.4), NADPH generating system (1 mM NADP^+, 10 mM glucose-6-phosphate, 1 U/mL of glucose-6-phosphate dehydrogenase, and 4 mM MgCl2), the appropriate concentration of HLMs, a corresponding probe substrate and hispidulin (or positive inhibitor for different probe reactions) in a final volume of 200 μL.
# (§2) The concentration of GAA was 100 μM, and the positive inhibitor concentrations were as follows: 10 μM furafylline for CYP1A2, 1 μM ketoconazole for CYP3A4, 10 μM tranylcypromine for CYP2A6, 50 μM clomethiazole for CYP2E1, 10 μM quinidine for CYP2D6, 10 μM sulfaphenazole for CYP2C9, 50 μM tranylcypromine for CYP2C19, 5 μM montelukast for CYP2C8. Probe substrates, positive inhibitors (except for dextromethorphan and quinidine, which were dissolved in water) and GAA were dissolved in methanol, with a final concentration of 1% (v/v), and 1% neat methanol was added to the incubations without inhibitor. There was a 3 min preincubation period (at 37 °C) before the reaction was initiated by adding an NADPH-generating system. The reaction was terminated by adding a 100 μL acetonitrile (10% trichloroacetic acid for CYP2A6) internal standard mix, and the solution was placed on ice. The mixture was centrifuged at 12,000 rpm for 10 min, and an aliquot (50 μL) of supernatant was transferred for HPLC analysis. The instrument used in this study was Agilent 1260 series instrument with DAD and FLD detector, and the quantitative assay for the corresponding metabolites was performed as previously reported (Lang et al. [2017]; Zhang et al. [2017]).
# (§3) GAA (100 μM) was used to initially screen for its direct inhibitory effects towards different human CYP isoforms. […]
# (§4) The enzyme kinetic parameters for the probe reaction were estimated from the best fit line, using least-squares linear regression of the inverse substrate concentration versus the inverse velocity (Lineweaver-Burk plots), and the mean values were used to calculate Vmax and Km. Inhibition data from the experiments that were conducted using multiple compound concentrations were represented by Dixon plots, and inhibition constant (Ki) values were calculated using non-linear regression according to the following equation: v=(VmaxS)/(Km(1+I/Ki)+S), where I is the concentration of the compound, Ki is the inhibition constant, S is the concentration of the substrate, and Km is the substrate concentration at half the maximum velocity (Vmax) of the reaction. The mechanism of the inhibition was assessed using the Lineweaver-Burk plots and the enzyme inhibition models. […]
# [2] = target: T2, CYP2D6 (Homo sapiens, UniProt P10635); experiment: Inhibition of CYP2D6 (dextromethorphan O-demethylation) in pooled human liver microsomes; type: in vitro ADME
# T2 construct: from tissue; host or cells: pooled human liver microsomes
# Protocol: as §1, §2, §3, §4
# [3] = target: T3, CYP2E1 (Homo sapiens, UniProt P05181); experiment: Inhibition of CYP2E1 (chlorzoxazone 6-hydroxylation) in pooled human liver microsomes; type: in vitro ADME
# T3 construct: CYP2E1 catalyzed reactions (chlorzoxazone 6-hydroxylation) in pooled HLM; from tissue; host or cells: pooled human liver microsomes
# Protocol: as §1, §2, §3, §4
# [4] = tested on: T4, CYP1A2; experiment: Inhibition of CYP1A2 (phenacetin O-deethylation) in pooled human liver microsomes; type: in vitro ADME; details: GAA 100 μM; pooled HLM
# T4 construct: to investigate the effects of GAA on different CYP isoforms in HLM; from tissue; host or cells: human liver microsomes
# Protocol: as §1
# as §2, with “There was a 3 min preincubation period (at 37 °C) before the reaction was initiated by adding an NADPH-generating system. The reaction was terminated by adding a 100 μL acetonitrile (10% trichloroacetic acid for CYP2A6) internal standard mix, and the solution was placed on ice. The mixture was centrifuged at 12,000 rpm for 10 min, and an aliquot (50 μL) of supernatant was transferred for HPLC analysis.” left out, “[2017]). […]” for “[2017]).”
# [5] = tested on: T5, CYP2A6; experiment: Inhibition of CYP2A6 (coumarin 7-hydroxylation) in pooled human liver microsomes; type: in vitro ADME; details: GAA 100 μM; pooled HLM
# T5 construct: from tissue; host or cells: human liver microsomes
# Protocol: as §1
# as §2, with “There was a 3 min preincubation period (at 37 °C) before the reaction was initiated by adding an NADPH-generating system. The reaction was terminated by adding a 100 μL acetonitrile (10% trichloroacetic acid for CYP2A6) internal standard mix, and the solution was placed on ice. The mixture was centrifuged at 12,000 rpm for 10 min, and an aliquot (50 μL) of supernatant was transferred for HPLC analysis.” left out, “[2017]). […]” for “[2017]).”
# [6] = tested on: T6, CYP2C9; experiment: Inhibition of CYP2C9 (diclofenac 4′-hydroxylation) in pooled human liver microsomes; type: in vitro ADME; details: GAA 100 μM; pooled HLM
# T6 construct: from tissue; host or cells: human liver microsomes
# Protocol: as §1
# as §2, with “There was a 3 min preincubation period (at 37 °C) before the reaction was initiated by adding an NADPH-generating system. The reaction was terminated by adding a 100 μL acetonitrile (10% trichloroacetic acid for CYP2A6) internal standard mix, and the solution was placed on ice. The mixture was centrifuged at 12,000 rpm for 10 min, and an aliquot (50 μL) of supernatant was transferred for HPLC analysis.” left out, “[2017]). […]” for “[2017]).”
# [7] = tested on: T7, CYP2C19; experiment: Inhibition of CYP2C19 (S-mephenytoin 4-hydroxylation) in pooled human liver microsomes; type: in vitro ADME; details: GAA 100 μM; pooled HLM
# T7 construct: from tissue; host or cells: human liver microsomes
# Protocol: as §1
# as §2, with “There was a 3 min preincubation period (at 37 °C) before the reaction was initiated by adding an NADPH-generating system. The reaction was terminated by adding a 100 μL acetonitrile (10% trichloroacetic acid for CYP2A6) internal standard mix, and the solution was placed on ice. The mixture was centrifuged at 12,000 rpm for 10 min, and an aliquot (50 μL) of supernatant was transferred for HPLC analysis.” left out, “[2017]). […]” for “[2017]).”
# [8] = tested on: T8, CYP2C8; experiment: Inhibition of CYP2C8 (paclitaxel 6α-hydroxylation) in pooled human liver microsomes; type: in vitro ADME; details: GAA 100 μM; pooled HLM
# T8 construct: from tissue; host or cells: human liver microsomes
# Protocol: as §1
# as §2, with “There was a 3 min preincubation period (at 37 °C) before the reaction was initiated by adding an NADPH-generating system. The reaction was terminated by adding a 100 μL acetonitrile (10% trichloroacetic acid for CYP2A6) internal standard mix, and the solution was placed on ice. The mixture was centrifuged at 12,000 rpm for 10 min, and an aliquot (50 μL) of supernatant was transferred for HPLC analysis.” left out, “[2017]). […]” for “[2017]).”
# [9] = target: T1, CYP3A4; experiment: Time-dependent inhibition study, CYP3A4 in human liver microsomes; type: in vitro ADME
# Protocol: (§5) To determine whether GAA could inhibit the activity of CYP3A4, 2D6, and 2E1 in a time-dependent manner, GAA (20 μM) was pre-incubated with HLMs (1 mg/mL) in the presence of an NADPH-generating system for 30 min at 37 °C. After incubation, an aliquot (20 μL) was transferred to another incubation tube (final volume 200 μL) containing an NADPH-generating system and probe substrates whose final concentrations were approximate to Km. Then, further incubations were performed to measure the residual activity. After being incubated for 10 and 30 min, the reactions were terminated by adding a 100 μL acetonitrile internal standard mix and then placed on ice; the corresponding metabolites were determined by HPLC.
# To determine the KI and Kinact values for the inactivation of CYP3A4, the incubations were conducted using higher probe substrate concentrations (approximately 4-fold Km values) and various concentrations of GAA (0–50 μM) after different preincubation times (0–30 min), with a two-step incubation scheme, as described above.
# [10] = target: T2, CYP2D6; experiment: Time-dependent inhibition study, CYP2D6 in human liver microsomes; type: in vitro ADME; details: GAA 20 μM pre-incubated with HLMs and NADPH for 30 min
# Protocol: as §5
# [11] = target: T3, CYP2E1; experiment: Time-dependent inhibition study, CYP2E1 in human liver microsomes; type: in vitro ADME; details: GAA 20 μM pre-incubated with HLMs and NADPH for 30 min
# Protocol: as §5
# [12] = design: method as in Teekachunhatean et al. [2012]; Tseng et al. [2014]; details: after oral administration of 3000 mg Lingzhi; ref Teekachunhatean et al. [2012]; Tseng et al. [2014]; cited from earlier work
# T3 sequence (P05181 whole entry): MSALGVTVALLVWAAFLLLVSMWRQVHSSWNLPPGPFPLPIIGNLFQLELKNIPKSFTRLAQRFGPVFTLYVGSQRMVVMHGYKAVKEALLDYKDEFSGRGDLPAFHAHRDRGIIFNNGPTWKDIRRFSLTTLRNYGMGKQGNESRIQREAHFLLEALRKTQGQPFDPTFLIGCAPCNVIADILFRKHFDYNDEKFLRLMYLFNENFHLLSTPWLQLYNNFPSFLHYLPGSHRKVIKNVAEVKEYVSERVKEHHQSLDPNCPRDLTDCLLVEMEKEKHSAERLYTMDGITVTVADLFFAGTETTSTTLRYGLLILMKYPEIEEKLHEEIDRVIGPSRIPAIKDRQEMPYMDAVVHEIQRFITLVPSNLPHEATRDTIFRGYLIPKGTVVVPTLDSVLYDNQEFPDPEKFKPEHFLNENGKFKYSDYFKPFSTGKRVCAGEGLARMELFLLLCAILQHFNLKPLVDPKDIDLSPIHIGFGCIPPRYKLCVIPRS
# T2 sequence (P10635 whole entry): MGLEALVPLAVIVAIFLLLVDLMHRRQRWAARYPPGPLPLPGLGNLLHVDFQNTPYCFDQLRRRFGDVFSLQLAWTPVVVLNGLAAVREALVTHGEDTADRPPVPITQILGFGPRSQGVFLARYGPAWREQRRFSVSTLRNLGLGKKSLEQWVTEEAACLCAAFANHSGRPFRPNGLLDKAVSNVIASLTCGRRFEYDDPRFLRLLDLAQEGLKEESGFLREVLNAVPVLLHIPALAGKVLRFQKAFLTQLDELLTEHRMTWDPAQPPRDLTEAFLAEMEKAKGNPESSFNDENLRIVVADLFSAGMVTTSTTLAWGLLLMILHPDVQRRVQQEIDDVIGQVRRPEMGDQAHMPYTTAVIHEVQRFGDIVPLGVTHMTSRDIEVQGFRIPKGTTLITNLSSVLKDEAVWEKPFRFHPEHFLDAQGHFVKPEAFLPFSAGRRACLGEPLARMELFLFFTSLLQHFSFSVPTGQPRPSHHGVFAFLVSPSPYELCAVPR
# T1 sequence (P08684 whole entry): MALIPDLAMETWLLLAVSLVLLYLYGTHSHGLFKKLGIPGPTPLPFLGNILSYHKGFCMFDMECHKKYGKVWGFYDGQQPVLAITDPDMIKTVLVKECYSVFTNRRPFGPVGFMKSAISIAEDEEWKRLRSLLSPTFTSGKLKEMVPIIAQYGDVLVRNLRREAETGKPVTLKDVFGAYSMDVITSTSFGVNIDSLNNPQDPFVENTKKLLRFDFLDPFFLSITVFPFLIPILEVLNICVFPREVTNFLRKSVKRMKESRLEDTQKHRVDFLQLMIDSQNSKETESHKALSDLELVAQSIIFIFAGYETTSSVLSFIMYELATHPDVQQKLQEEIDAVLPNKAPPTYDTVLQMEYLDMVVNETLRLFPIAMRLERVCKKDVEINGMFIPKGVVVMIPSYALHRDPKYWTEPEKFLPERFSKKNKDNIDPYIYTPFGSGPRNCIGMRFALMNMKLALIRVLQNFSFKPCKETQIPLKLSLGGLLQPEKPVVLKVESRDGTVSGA
structure (smiles),measurement,setting,value
"C[C@H](CC(=O)C[C@@H](C)[C@H]1C[C@H](O)[C@@]2(C)C3=C(C(=O)C[C@]12C)[C@@]1(C)CCC(=O)C(C)(C)[C@@H]1C[C@@H]3O)C(=O)O [GAA, Ganoderic acid A]",IC50,[1],15 µM
same,Ki,[1],7.16 µM
same,"activity of CYP3A4, % of negative control","[1]; GAA 100 μM, pooled HLM, testosterone 6β-hydroxylation, remaining activity",14.6%
same,inhibition model of CYP3A4,[1]; Lineweaver-Burk plots,non-competitive
same,IC50,[2],21.8 µM
same,Ki,[2],10.1 µM
same,"activity of CYP2D6, % of negative control","[2]; GAA 100 μM, pooled HLM, dextromethorphan O-demethylation, remaining activity",18.2%
same,inhibition model of CYP2D6,[2]; Lineweaver-Burk plots,competitively
same,IC50,[3],28.3 µM
same,Ki,[3],13.4 µM
same,"activity of CYP2E1, % of negative control","[3]; GAA 100 μM, pooled HLM, chlorzoxazone 6-hydroxylation, remaining activity",27.7%
same,inhibition model of CYP2E1,[3]; Lineweaver-Burk plots,competitively
same,effect on the activity of CYP1A2,[4],did not exert effect
same,effect on the activity of CYP2A6,[5],did not exert effect
same,effect on the activity of CYP2C9,[6],did not exert effect
same,effect on the activity of CYP2C19,[7],did not exert effect
same,effect on the activity of CYP2C8,[8],did not exert effect
same,time dependence of inhibition of CYP3A4,[9]; GAA 20 μM pre-incubated with HLMs and NADPH for 30 min,time-dependent
same,CYP3A4 inactivated every minute,"[9]; concluded from the value of Kinact, GAA incubated with HLM",about 4.8%
same,time dependence of inhibition of CYP2D6,[10],stable with incubation time
same,time dependence of inhibition of CYP2E1,[11],stable with incubation time
same,maximum concentration in plasma of GAA,[12],2.24 to 10.99 ng/mL
